Laboratory results published in ChEMBL document CHEMBL2074221, “Breast cancer resistance protein (BCRP/ABCG2) induces cellular resistance to HIV-1 nucleoside reverse transcriptase inhibitors” (Mol Pharmacol, 2003).
*1 amine or outer side, *2 acyl side, *3 side chain or, on linkers, in order; H or OH if unused. Where a SMILES comes first, the peptide text is derived from it. Bridges are numbered along the chain shown (N, C = ends). Roman numbers before positions name the chains, in order. [ ]: non-standard residue; d: D form. Actinocin(9to1) = Cc1c2oc3c(C)ccc(C(=O)[*:1])c3nc-2c(C(=O)[*:2])c(N)c1=O; NMeV = CN[C@H](C(=O)O)C(C)C; Sar = CNCC(=O)O

The compounds below were run against T1, Broad substrate specificity ATP-binding cassette transporter ABCG2 (Homo sapiens, UniProt Q9UNQ0) (assay: TP_TRANSPORTER: Anti-HIV-1 activity in MT-4 and MT-4/DOX500).
T1 sequence (Q9UNQ0 whole entry): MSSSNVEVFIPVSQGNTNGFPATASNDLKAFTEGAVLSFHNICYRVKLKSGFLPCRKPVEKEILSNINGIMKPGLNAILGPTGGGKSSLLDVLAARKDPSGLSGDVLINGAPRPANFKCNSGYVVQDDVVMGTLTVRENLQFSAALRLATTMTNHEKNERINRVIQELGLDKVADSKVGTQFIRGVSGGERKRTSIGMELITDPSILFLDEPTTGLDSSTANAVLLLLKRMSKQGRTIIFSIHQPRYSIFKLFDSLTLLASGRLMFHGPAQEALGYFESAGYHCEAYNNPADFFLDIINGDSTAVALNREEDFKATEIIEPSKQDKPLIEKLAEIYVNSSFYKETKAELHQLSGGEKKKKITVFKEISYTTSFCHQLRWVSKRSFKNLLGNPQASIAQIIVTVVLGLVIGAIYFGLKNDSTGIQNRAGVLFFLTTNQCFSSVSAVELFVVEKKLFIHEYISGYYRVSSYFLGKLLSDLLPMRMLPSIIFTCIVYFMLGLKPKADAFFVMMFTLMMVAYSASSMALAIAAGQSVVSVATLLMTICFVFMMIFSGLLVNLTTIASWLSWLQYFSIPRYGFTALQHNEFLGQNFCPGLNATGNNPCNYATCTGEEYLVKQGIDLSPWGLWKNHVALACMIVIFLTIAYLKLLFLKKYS
Assay type: functional, cell-based
In the case of `Cc1cn([C@H]2C[C@H](N=[N+]=[N-])[C@@H](CO)O2)c(=O)[nH]c1=O` [ZIDOVUDINE], the Activity is reported as “substrate []”. With `Nc1ccn([C@@H]2CS[C@H](CO)O2)c(=O)n1` [LAMIVUDINE] the Activity was “substrate []”.

What follows are compounds tested against T1, Broad substrate specificity ATP-binding cassette transporter ABCG2 (assay: TP_TRANSPORTER: Cytotoxicity in MT-4 and MT-4/DOX500 cells).
Assay type: functional, cell-based
With `Cc1c2oc3c(C)ccc(C(=O)N[C@@H]4C(=O)N[C@H](C(C)C)C(=O)N5CCC[C@H]5C(=O)N(C)CC(=O)N(C)[C@@H](C(C)C)C(=O)O[C@@H]4C)c3nc-2c(C(=O)N[C@@H]2C(=O)N[C@H](C(C)C)C(=O)N3CCC[C@H]3C(=O)N(C)CC(=O)N(C)[C@@H](C(C)C)C(=O)O[C@@H]2C)c(N)c1=O` [DACTINOMYCIN] (I: T[dV]P[Sar][NMeV] / II: T[dV]P[Sar][NMeV]; ester I:1-I:C, II:1-II:C; linker I:N-II:N via Actinocin(9to1)) the Activity was “substrate []”. With `CCc1c2c(nc3ccc(O)cc13)-c1cc3c(c(=O)n1C2)COC(=O)[C@]3(O)CC` [7-ETHYL-10-HYDROXYCAMPTOTHECIN] the Activity was “substrate []”. For `Cc1cn([C@H]2C[C@H](N=[N+]=[N-])[C@@H](CO)O2)c(=O)[nH]c1=O` [ZIDOVUDINE], the Activity was “substrate []”. `O=C1c2c(O)ccc(O)c2C(=O)c2c(NCCNCCO)ccc(NCCNCCO)c21` [MITOXANTRONE] was tested, and the Activity was “substrate []”. In the case of `COc1cccc2c1C(=O)c1c(O)c3c(c(O)c1C2=O)C[C@@](O)(C(=O)CO)C[C@@H]3O[C@H]1C[C@H](N)[C@H](O)[C@H](C)O1` [DOXORUBICIN], the Activity is reported as “substrate []”. In the case of `COc1cc([C@@H]2c3cc4c(cc3[C@@H](O[C@@H]3O[C@@H]5CO[C@@H](C)O[C@H]5[C@H](O)[C@H]3O)[C@H]3COC(=O)[C@H]23)OCO4)cc(OC)c1O` [ETOPOSIDE], the Activity is reported as “substrate []”. With `CCc1c2c(nc3ccc(OC(=O)N4CCC(N5CCCCC5)CC4)cc13)-c1cc3c(c(=O)n1C2)COC(=O)[C@]3(O)CC` [IRINOTECAN] the Activity was “substrate []”.
